We go through 3 compounds from patent US20070219185A1, “Preventive or therapeutic agent for neuropathic pain” (priority 2004, published 2007).

Each structure is given as a SMILES string.

In general, IC50 refers to the point on the concentration scale where inhibition reaches its midpoint.

Assay [1] concerns STZ-induced diabetic rats. The assay can be described thus: Nociceptive threshold in STZ-induced diabetic rats (single administration), Randall-Selitto method. The class given is in vivo, rat. The settings on record: for Nociceptive threshold before administration / Nociceptive threshold after administration: mean±SE; for Nociceptive threshold after administration: one hour after administration. Here is the method: Measurement of the Nociceptive Threshold in STZ-Induced Diabetic Rats (Single Administration)
STZ (50 mg/kg) was administered intravenously to male SD stain rats to induce diabetes mellitus. Test articles were administered 14 days later (10 rats in each group). Test articles used were clonidine as the α2 AR stimulant, terbutaline as the β2 AR stimulant and the above-mentioned Compound 1. Normal and Control groups received the medium (0.5% methylcellulose). Before and one hour after administration of test articles, the nociceptive threshold against pressure stimulation given to the right hind-paw of rats was measured by Randall-Selitto method, and compared with that in Control group.

Assay [2] has as its system STZ-induced diabetic rats. The assay can be described thus: Nociceptive threshold in STZ-induced diabetic rats (repeated administration), Randall-Selitto method. It counts as in vivo, rat. The settings on record: for Nociceptive threshold before administration / Nociceptive threshold after administration / nociceptive threshold following repeated administration for 14 days: Example 2; for Nociceptive threshold before administration / Nociceptive threshold after administration: 14 times, mean±SE; for Nociceptive threshold before administration: before the final administration; for Nociceptive threshold after administration: one hour after the final administration; for nociceptive threshold following repeated administration for 14 days: H group (clonidine 1.0 mg/kg subcutaneous; terbutaline 10 mg/kg oral), versus Control group; for nociceptive threshold after 14-day repeated, sole administration: Example 3, FIG. 1, L and M groups (clonidine 0.1, 0.3 mg/kg subcutaneous; terbutaline 1, 3 mg/kg oral). The method, then:
Measurement of the Nociceptive Threshold in STZ-Induced Diabetic Rats (Repeated Administration)
STZ (50 mg/kg) was administered intravenously to male SD stain rats to induce diabetes mellitus. […] Normal and Control groups received the medium (0.5% methylcellulose). Before the final administration (before administration of test articles) and after the final administration (one hour after the administration), the nociceptive threshold against pressure stimulation given to the right hind-paw of rats was measured by Randall-Selitto method, and compared with that in Control group.

The target of a further assay is T1, β2 AR (Rattus norvegicus, UniProt P10608).
T1 construct: the fascia of gravid uterus (β2 AR) as the sources of receptors; from tissue; host or cells: rat gravid uterus (fascia/membrane specimen)
The assay can be described thus: Receptor binding test of β2 AR. The note with it: 3H-dihydroalprenolol; fascia of rat gravid uterus; read-out: binding affinity (IC50 value) to β2 AR. The method, then: Receptor Binding Tests of α2 AR and β2 AR
Receptor binding tests were conducted in ^3H-p-aminoclonidine and ^3H-dihydroalprenolol (3 rats in each) using specimens of the membrane of rat cerebral cortex (α2 AR) and the fascia of gravid uterus (β2 AR) as the sources of receptors. The binding ability of Compound 1 to α2 AR and β2 AR were obtained by calculating binding inhibition rates (IC50 values) of Compound 1 against the binding abilities of the above-mentioned tracers with both receptors.

The subject of assay [3] is Seltzer model rats. As to the kind of experiment: Nociceptive threshold in Seltzer model rats (single administration), Randall-Selitto method. The class given is in vivo, rat. The settings on record: Example 6, FIG. 3, 10 mg/kg oral, one hour after administration. An excerpt: Measurement of the Nociceptive Threshold in Seltzer Model Rats (Single Administration)
Ten, 9-week old male SD rats were anesthetized with pentobarbital (Nembutal injection®), and the right sciatic nerve was exposed. In Nerve ligation group (7 rats), half of the dorsal portion of the nerve was ligated using 5-0 nylon thread. In Normal group (3 rats), the sciatic nerve was only exposed. Three weeks after the model was created, the control group received the medium (0.5% methylcellulose) and Nerve ligation group was given orally test articles. Before the administration (before administration of test articles) and after administration (one hour after the administration of test articles), the nociceptive threshold against pressure stimulation given to the right hind-paw of rats was measured by Randall-Selitto method. Results before and after administration were compared.

Assay [4] deals with Seltzer model rats. As to the kind of experiment: Nociceptive threshold in Seltzer model rats (repeated administration), Randall-Selitto method. The settings on record: Example 7, FIG. 4; 10 mg/kg oral, 14-day repeated. The class given is in vivo, rat. Here is the method: Measurement of the Nociceptive Threshold in Seltzer Model Rats (Repeated Administration)
Thirty, 7-week old male SD rats were anesthetized with pentobarbital (Nembutal injection®), and the right sciatic nerve was exposed. In the nerve ligation group (20 rats), half of the dorsal portion of the nerve was ligated using 6-0 silk thread. In the normal group (10 rats), the sciatic nerve was only exposed. Beginning the following day of the model creation, test articles were administered orally once a day, repeatedly, 14 times in total. Normal and Control groups received the medium (0.5% methyl-cellulose) and Nerve ligation group was given orally test articles. One hour after the final administration, the nociceptive threshold against pressure stimulation given to the right hind-paw of rats was measured by Randall-Selitto method, and compared with Control group.

Setting [5] is: Example 1, H group 1.0 mg/kg subcutaneous.
[6] abbreviates: Example 1, L group 0.1 mg/kg subcutaneous.
The mark [7] stands for this setting: H group 1.0 mg/kg subcutaneous once a day.
Setting [8] is: L group 0.1 mg/kg subcutaneous once a day.
Where [9] appears, read: M group 0.3 mg/kg subcutaneous once a day.
Setting [10] is: Example 1, H group 10.0 mg/kg oral.
The mark [11] stands for this setting: Example 1, L group 1.0 mg/kg oral.
The mark [12] stands for this setting: H group 10.0 mg/kg oral once a day.
Where [13] appears, read: L group 1.0 mg/kg oral once a day.
The mark [14] stands for this setting: M group 3.0 mg/kg oral once a day.

T1 sequence (P10608 whole entry): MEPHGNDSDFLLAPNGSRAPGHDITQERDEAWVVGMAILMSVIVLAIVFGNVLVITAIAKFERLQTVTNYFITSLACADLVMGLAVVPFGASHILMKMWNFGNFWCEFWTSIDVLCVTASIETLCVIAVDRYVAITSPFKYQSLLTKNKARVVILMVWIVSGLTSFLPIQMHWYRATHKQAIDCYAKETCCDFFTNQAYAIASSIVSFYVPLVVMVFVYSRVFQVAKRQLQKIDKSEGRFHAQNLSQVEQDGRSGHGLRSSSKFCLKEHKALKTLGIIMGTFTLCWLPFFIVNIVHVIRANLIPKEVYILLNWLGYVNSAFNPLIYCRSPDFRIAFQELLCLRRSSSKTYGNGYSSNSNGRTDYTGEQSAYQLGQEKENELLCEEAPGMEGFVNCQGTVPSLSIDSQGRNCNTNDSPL

With `Clc1cccc(Cl)c1N=C1NCCN1` [Clonidine, clonidine], the “analgesic effect compared with Control group” value in assay [1] (Example 1, H group 1.0 mg/kg subcutaneous, after administration) is recorded as “apparent analgesic effect”. The “Nociceptive threshold before administration” value in assay [1] (setting [5]) is reported as 115.4 ± 8.9 g; in assay [1] (setting [6]), 122.8 ± 7.5 g; in assay [2] (setting [7]), 97.2 ± 14.5 g; in assay [2] (setting [8]) it was 129.2 ± 15.9 g; in assay [2] (setting [9]), 104.2 ± 13.8 g. Further, the “Nociceptive threshold after administration” value is recorded as 325.8 ± 29.8 g in assay [1] (setting [5]); 155.8 ± 16.3 g in assay [1] (setting [6]); 254.4 ± 33.3 g in assay [2] (setting [7]); 180.6 ± 24.4 g in assay [2] (setting [8]); 115.2 ± 18.2 g in assay [2] (setting [9]). Moreover, in assay [2], the “nociceptive threshold following repeated administration for 14 days” value is recorded as “increased significantly”. In addition, the “nociceptive threshold after 14-day repeated, sole administration” value in assay [2] is “in neither L groups or M groups of either test articles, the nociceptive threshold increased”.
Turning to `CN(C)C(=O)COc1ccc2c(c1)C[C@@H](NC[C@H](O)c1ccc(O)c(CO)c1)CC2` [Compound 1, (-)-bis{2-[(2S)-2-[{(2R)-2-hydroxy-2-(4-hydroxy-3-hydroxymethyl-phenyl)ethyl}amino]-1,2,3,4-tetrahydronaphthalen-7-yloxy]-N,N-dimethylacetamide}sulfate dihydrate], the “Nociceptive threshold before administration” value was found to be 71.8 ± 5.3 g in assay [1] (Example 4, 0.3 mg/kg oral); 95.0 ± 5.1 g in assay [1] (Example 4, 1.0 mg/kg oral); 92.0 ± 13.3 g in assay [1] (Example 4, 3.0 mg/kg oral); 89.0 ± 10.2 g in assay [1] (Example 4, 10.0 mg/kg oral). Also, the “Nociceptive threshold after administration” value in assay [1] (Example 4, 0.3 mg/kg oral) amounted to 117.6 ± 10.7 g; in assay [1] (Example 4, 1.0 mg/kg oral) it was 131.0 ± 12.3 g; in assay [1] (Example 4, 3.0 mg/kg oral), 174.6 ± 15.4 g; in assay [1] (Example 4, 10.0 mg/kg oral), 253.4 ± 28.3 g. Also, in assay [1] (Example 4, 3 mg/kg and 10 mg/kg oral), the analgesic effects entry is listed as “apparent analgesic effects”. Further, the “nociceptive thresholds after administration, dose dependence” value in assay [1] (Example 4, 0.3, 1, 3 and 10 mg/kg oral) is given as “increased dose-dependently”; in assay [2] (Example 5, FIG. 2, 0.3, 1, 3 and 10 mg/kg oral, 14-day repeated), “clearly increased dose-dependently beginning at dosage of 0.3 mg/kg”. Moreover, the IC50 on β2 AR is 14 nM. Moreover, the “nociceptive threshold of Nerve ligation group in comparison with that before administration” value in the assay on Seltzer model rats [3] is listed as “improved significantly”. The “nociceptive threshold of the right hind-paw in comparison with that of Control group” value in the assay on Seltzer model rats [4] is recorded as “improved significantly”. Moreover, in assay [2] (Example 5, FIG. 2, oral, 14-day repeated), the “nociceptive threshold compared with Normal group” value is on record as “improved the nociceptive threshold to the same level as in Normal group”. For the same compound, the “effect of repeated administration compared with single administration” value in assay [2] (Example 5, oral, 14-day repeated versus single) is listed as “stronger effect increasing the nociceptive threshold than single administration”.
On to `CC(C)(C)NCC(O)c1cc(O)cc(O)c1` (centres unmarked) [Terbutaline, terbutaline], for which the “Nociceptive threshold before administration” value stood at 122.6 ± 14.5 g in assay [1] (setting [10]); 134.2 ± 6.3 g in assay [1] (setting [11]); 228.2 ± 11.1 g in assay [2] (setting [12]); 113.8 ± 11.9 g in assay [2] (setting [13]); 155.4 ± 32.0 g in assay [2] (setting [14]). Moreover, the “Nociceptive threshold after administration” value is on record as 146.8 ± 20.7 g in assay [1] (setting [10]); 152.8 ± 12.7 g in assay [1] (setting [11]); 229.0 ± 14.8 g in assay [2] (setting [12]); 115.2 ± 12.6 g in assay [2] (setting [13]); 167.8 ± 32.3 g in assay [2] (setting [14]). Further, the “nociceptive threshold following repeated administration for 14 days” value in assay [2] is reported as “increased significantly”. Moreover, in assay [2], the “nociceptive threshold after 14-day repeated, sole administration” value was “in neither L groups or M groups of either test articles, the nociceptive threshold increased”.
